{
  "source": "paper PMC5512454",
  "about": "(Bioorganic & medicinal chemistry, 2017)",
  "key": {"[1]": {"test_system": "food-maintained responding", "assay": "Food-maintained behavior in rhesus monkeys", "format": "in vivo"}, "[2]": {"test_system": "cocaine-maintained responding", "assay": "Cocaine self-administration in rhesus monkeys", "format": "in vivo"}, "[3]": {"biological_target": "human D3 receptor (Homo sapiens, UniProt P35462)", "sequence (P35462 whole entry)": "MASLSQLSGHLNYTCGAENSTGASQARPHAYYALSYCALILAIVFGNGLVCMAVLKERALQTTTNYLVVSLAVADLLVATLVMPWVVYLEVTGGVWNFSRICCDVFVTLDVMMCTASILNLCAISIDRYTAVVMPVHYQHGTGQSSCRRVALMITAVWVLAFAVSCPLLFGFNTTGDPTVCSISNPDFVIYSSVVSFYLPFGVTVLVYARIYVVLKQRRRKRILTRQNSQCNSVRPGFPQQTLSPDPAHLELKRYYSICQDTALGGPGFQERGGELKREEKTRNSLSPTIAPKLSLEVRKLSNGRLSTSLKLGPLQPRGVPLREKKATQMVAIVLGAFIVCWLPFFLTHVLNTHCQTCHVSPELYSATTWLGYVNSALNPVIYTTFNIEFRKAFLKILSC", "assay": "Radioligand displacement assay, hD3"}, "[4]": {"biological_target": "D3 receptors in rat brain slices (Rattus norvegicus, UniProt P19020)", "sequence (P19020 whole entry)": "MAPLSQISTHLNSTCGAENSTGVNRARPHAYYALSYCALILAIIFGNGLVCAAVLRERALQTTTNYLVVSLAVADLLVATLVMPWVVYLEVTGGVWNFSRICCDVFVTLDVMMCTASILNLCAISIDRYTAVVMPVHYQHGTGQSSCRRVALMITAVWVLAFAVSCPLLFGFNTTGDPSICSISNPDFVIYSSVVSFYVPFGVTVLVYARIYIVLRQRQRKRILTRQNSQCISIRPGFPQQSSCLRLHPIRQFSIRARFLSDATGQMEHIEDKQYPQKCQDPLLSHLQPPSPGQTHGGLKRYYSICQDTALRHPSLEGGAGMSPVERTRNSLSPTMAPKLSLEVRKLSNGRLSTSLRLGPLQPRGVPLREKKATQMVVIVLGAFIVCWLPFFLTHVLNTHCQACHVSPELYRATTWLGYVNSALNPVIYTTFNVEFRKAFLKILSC", "assay": "In-vitro autoradiography of coronal rat brain slices", "format": "binding", "conditions": "proven by displacement with BP897 (1 μM)"}, "[5]": {"test_system": "D3 receptors in rat brain", "assay": "Ex-vivo autoradiography of coronal rat brain sections", "format": "in vivo", "conditions": "co-injection of BP897; region of interest-to-background ratios; 60 min p.i."}, "[6]": {"test_system": "dopamine D3 receptors in vivo", "assay": "PET imaging study in rat"}},
  "data": [
    {"smiles": "COc1ccccc1N1CCN(CCCCNC(=O)c2cc3ccccn3n2)CC1", "note": "[Compound 1]", "values": [
      {"measurement": "Food-maintained responding following the i.v. self-administration component (food 2)", "setting": "[1]; food 2", "value": "did not appreciably alter"},
      {"measurement": "Reduction of food-maintained behavior during food 1 session", "setting": "[1]; pretreatment 0.32 mg/kg, food 1 (before cocaine component)", "value": "approximately 30%"},
      {"measurement": "Food 1 and 2 responding at low and intermediate doses", "setting": "[1]; pretreatment 0.1 and 0.18 mg/kg", "value": "did not markedly decrease"},
      {"measurement": "Duration of action of behaviorally active doses", "setting": "[1]; suggested from food 2 components in sessions of i.v. saline availability", "value": "< 2", "unit": "h"},
      {"measurement": "Cocaine-maintained responding, % of control values", "setting": "[2]; pretreatment 0.32 mg/kg, 0.03 mg/kg per injection i.v. cocaine, group average", "value": "approximately 20%"},
      {"measurement": "Effect of various pretreatment doses on cocaine-maintained responding", "setting": "[2]; various doses (Figure S2)", "value": "dose-related decreases"}
    ]},
    {"smiles": "CC(C)(C)c1nc(N2CCN(CCCCNC(=O)c3cc4ccccc4s3)CC2)cc(C(F)(F)F)n1", "note": "[Compound 9, N-(4-(4-(2-tert-butyl-6-(trifluoromethyl)pyrimidin-4-yl)piperazin-1-yl)butyl)benzo[b]thiophene-2-carboxamide]", "values": [
      {"measurement": "D3 selectivity over all biogenic amine receptors investigated", "setting": "[3]", "value": "1000–20000 fold"}
    ]},
    {"smiles": "O=C(NCCCCN1CCN(c2ccccc2OCC[18F])CC1)c1cc2ccccn2n1", "note": "[[^18F]2, N-[4-[4-(2-[^18F]fluoroethoxyphenyl)-piperazin-1-yl]-butyl]-pyrazolo-[1,5-a]pyridin-2-carboxamide]", "values": [
      {"measurement": "Binding in rat brain slices, in-vitro autoradiography", "setting": "[4]", "value": "D3-specific binding"},
      {"measurement": "Radioligand displaced by BP897, third ventricle (3V)", "setting": "[5]", "value": "5–14%"},
      {"measurement": "Blood-brain-barrier (BBB) penetration", "setting": "[6]", "value": "only low blood-brain-barrier (BBB) penetration"},
      {"measurement": "Brain uptake of the radioligand in CNS structures", "setting": "[6]", "value": "marginal brain uptake"},
      {"measurement": "Reduction of uptake in the pituitary gland by pretreatment with BP897", "setting": "[6]", "value": 25, "unit": "%"},
      {"measurement": "Mean whole pituitary gland uptake of the radioligand", "setting": "[6]; 40 min p.i.", "value": "0.394 ± 0.016", "unit": "% ID/g"}
    ]}
  ]
}
